Laboratory results reported in patent publication US10829484B2, “Compounds and methods for kinase modulation, and indications therefor” (Plexxikon Inc., priority 2015, dated 2020).
Positions count from the first letter of the chain named. Where two headings read alike, the source gives them in different places.

Key:
BaF3-FLT3-ITD-F691L = molecular target: T1, BaF3-FLT3-ITD-F691L (Homo sapiens, UniProt P36888, INS600HVDFREYEYD/F691L, cells depend on it); experiment: CTB viability assay CS0047, BaF3-FLT3-ITD-F691L; format: cell-based, murine; settings: CellTiter Blue viability, 72 hours
T1 sequence (P36888 with tags, fused parts or gaps INS600HVDFREYEYD/F691L): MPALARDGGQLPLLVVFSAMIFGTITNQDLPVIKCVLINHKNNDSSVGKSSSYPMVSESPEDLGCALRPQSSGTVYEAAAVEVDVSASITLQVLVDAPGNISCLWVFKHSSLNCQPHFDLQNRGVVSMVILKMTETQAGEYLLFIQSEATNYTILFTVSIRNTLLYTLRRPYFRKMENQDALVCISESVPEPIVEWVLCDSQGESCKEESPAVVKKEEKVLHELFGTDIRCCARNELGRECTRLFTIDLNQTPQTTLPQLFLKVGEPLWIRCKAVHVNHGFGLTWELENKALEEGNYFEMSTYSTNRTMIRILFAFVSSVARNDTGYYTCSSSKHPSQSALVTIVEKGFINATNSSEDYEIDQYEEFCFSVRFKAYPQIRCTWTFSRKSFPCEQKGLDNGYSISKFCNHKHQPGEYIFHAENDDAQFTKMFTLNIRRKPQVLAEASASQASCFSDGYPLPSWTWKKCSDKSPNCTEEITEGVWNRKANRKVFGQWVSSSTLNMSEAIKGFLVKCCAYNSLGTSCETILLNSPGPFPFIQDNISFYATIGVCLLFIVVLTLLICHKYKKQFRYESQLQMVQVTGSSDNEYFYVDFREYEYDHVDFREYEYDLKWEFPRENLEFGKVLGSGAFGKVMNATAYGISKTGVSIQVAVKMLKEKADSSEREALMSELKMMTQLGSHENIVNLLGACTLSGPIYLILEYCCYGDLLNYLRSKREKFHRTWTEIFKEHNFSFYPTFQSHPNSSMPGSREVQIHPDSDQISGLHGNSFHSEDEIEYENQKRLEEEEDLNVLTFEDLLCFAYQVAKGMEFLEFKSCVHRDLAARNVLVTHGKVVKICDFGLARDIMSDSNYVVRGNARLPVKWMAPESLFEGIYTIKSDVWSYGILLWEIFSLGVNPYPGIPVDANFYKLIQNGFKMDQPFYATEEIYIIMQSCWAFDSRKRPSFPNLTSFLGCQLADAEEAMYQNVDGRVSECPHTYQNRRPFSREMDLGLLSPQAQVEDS
From the text: (§1) Gene constructs containing the human FLT3 sequences FLT3-ITD, FLT3-ITD-F691L, FLT3-ITD-D835V and FLT3-D835V were synthesized by reverse translation of the human protein sequences, with codons optimized for mammalian expression. Sequence of the internal tandem duplication (ITD) was based on the MV4-11 ITD sequence. Synthetic DNA constructs were cloned into the pMSCV puro retroviral vector (Clontech) and transfected into the EcoPack2-293 packaging cell line (Clontech) to generate retroviruses that contain the different FLT3 constructs. Viruses were transduced into the IL-3-dependent, murine […] cell line, Ba/F3, and selected for puromycin resistance and IL-3 independence. All cell lines were cloned by limiting dilution and clones were used for all subsequent cell assays. Overexpression of the FLT3 mutants in the Ba/F3 cells results in constitutive phosphorylation of the exogenous FLT3 protein, which is required for IL-3 independence.
(§2) Cell lines were serum starved overnight in media containing 0.5% FBS, plated at 15,000 cells/well in 96-well white-walled tissue culture plates, and 3-fold serial dilutions of test compounds of Formula I were added for 72 hours at 37° C. CellTiter Blue (CTB, Promega) was added and incubated for an additional 3 hours at 37° C. Fluorescence was read at 560 nm excitation, 590 nm emission. Wells with CTB+media only were used for background subtraction, and the fluorescence of compound-treated cells was normalized to the fluorescence of DMSO-treated cells. IC50s were determined using Igor Pro software. All compounds are assayed in duplicate cell plates.

BaF3-FLT3-ITD = molecular target: T2, BaF3-FLT3-ITD (Homo sapiens, UniProt P36888, INS600HVDFREYEYD, cells depend on it); experiment: CTB viability assay CS0046, BaF3-FLT3-ITD; format: cell-based, murine; settings: CellTiter Blue viability, 72 hours
T2 sequence (P36888 with tags, fused parts or gaps INS600HVDFREYEYD): T1 sequence (P36888 with tags, fused parts or gaps INS600HVDFREYEYD/F691L) with L701F
From the text: as §1, §2

[1] = Table 3, read-out: Cell Assay: CS0047: BaF3-FLT3-ITD-F691L CTB: IC50
[2] = Table 3, read-out: Cell Assay: CS0046: BaF3-FLT3-ITD CTB: IC50
[3] = BaF3-FLT3-ITD-F691L cells, read-out: Cell Assay: CS0047:BaF3-FLT3-ITD-F691L CTB:IC50
[4] = BaF3-FLT3-ITD cells, read-out: Cell Assay: CS0046:BaF3-FLT3-ITD CTB:IC50
[5] = Table 4, compounds from WO 2011/022473, read-out: Cell Assay: CS0047: BaF3-FLT3-ITD-F691L CTB: IC50
[6] = Table 4, compounds from WO 2011/022473, read-out: Cell Assay: CS0046: BaF3-FLT3-ITD CTB: IC50

Structure (SMILES) | GI50 (BaF3-FLT3-ITD-F691L; [5]) [nM] | GI50 (BaF3-FLT3-ITD; [6]) [nM] | also measured
O=C(Cc1ccc(-c2cnc(Nc3ccccc3)nc2)cc1F)Nc1cc(C2(C(F)(F)F)CC2)on1 | – | – | GI50 (BaF3-FLT3-ITD-F691L; [1]): 0.728 nM; GI50 (BaF3-FLT3-ITD; [2]): 0.152 nM
Cn1cc(Nc2ncc(-c3ccc(CC(=O)Nc4cc(C5(C(F)(F)F)CC5)on4)c(F)c3)cn2)cn1 | – | – | GI50 (BaF3-FLT3-ITD-F691L; [1]): 0.189 nM; GI50 (BaF3-FLT3-ITD; [2]): 0.0861 nM
Cc1nn(C)c(C)c1Nc1ncc(-c2ccc(CC(=O)Nc3cc(C4(C(F)(F)F)CC4)on3)c(F)c2)cn1 [P-029, 2-[2-fluoro-4-[2-[(l,3,5-trimethylpyrazol-4-yl)amino]pyrimidin-5-yl]phenyl]-N-[5-[1-(trifluoromethyl)cyclopropyl]isoxazol-3-yl]acetamide] | – | – | GI50 (BaF3-FLT3-ITD-F691L; [3]): 10 to 50 nM; GI50 (BaF3-FLT3-ITD; [4]): 10 to 50 nM
O=C(O)Cn1cc(Nc2ncc(-c3ccc(CC(=O)Nc4cc(C5(C(F)(F)F)CC5)on4)c(F)c3)cn2)cn1 [P-078, 2-[4-[[5-[3-fluoro-4-[2-oxo-2-[[5-[1-(trifluoromethyl)cyclopropyl]isoxazol-3-yl]amino]ethyl]phenyl]pyrimidin-2-yl]amino]pyrazol-1-yl]acetic acid] | – | – | GI50 (BaF3-FLT3-ITD-F691L; [3]): 10 to 50 nM; GI50 (BaF3-FLT3-ITD; [4]): 10 to 50 nM
CC(C)(c1cc(NC(=O)Cc2ccc(-c3ccc(NCCN4CCOCC4)nc3)cc2)no1)C(F)(F)F [reference compound] | 73.9 | 0.597 | –
CNc1ccc(-c2ccc(CC(=O)Nc3cc(C(C)(C)C)on3)cc2)cn1 [reference compound] | 43.2 | 0.146 | –
CCNc1ccc(-c2ccc(CC(=O)Nc3cc(C(C)(C)C)on3)cc2)cn1 [reference compound] | 45.4 | 0.252 | –
CC(C)(C)c1cc(NC(=O)Nc2ccc(-c3cnc(NC4CCOCC4)nc3)cn2)no1 [reference compound] | 110 | 6.6 | –
CC(C)(C)c1cc(NC(=O)Nc2ccc(-c3cnc(NC4CC4)nc3)cn2)no1 [reference compound] | 77.8 | 5.91 | –
